The record followed here is patent publication US9249453B2, “Method for identifying a malodor inhibitor” (Kao Corporation, priority 2011, dated 2016).

What all share (type): cell-based
One assay has as its target T1, OR8H1 (Homo sapiens, UniProt Q8NGG4).
T1 construct: expressed in transfected cells; host or cells: HEK293
T1 sequence (Q8NGG4 1-311): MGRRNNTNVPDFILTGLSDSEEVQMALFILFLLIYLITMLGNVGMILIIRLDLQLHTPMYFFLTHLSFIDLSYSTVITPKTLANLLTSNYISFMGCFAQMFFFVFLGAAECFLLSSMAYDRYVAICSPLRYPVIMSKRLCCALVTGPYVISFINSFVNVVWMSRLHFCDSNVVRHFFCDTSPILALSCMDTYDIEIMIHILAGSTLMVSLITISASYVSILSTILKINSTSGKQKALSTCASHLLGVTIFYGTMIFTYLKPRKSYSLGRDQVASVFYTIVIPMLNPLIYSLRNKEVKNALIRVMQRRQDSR
The experiment in a line: Luciferase reporter assay: suppression of the skatole response of OR8H1 expressed in HEK293 cells. To be noted: test substance 100 μM mixed with 300 μM skatole, HEK293 cells expressing OR8H1; for inhibition at 100 µM: 4 h, read-out: Inhibition rate 8H1. On the procedure: (§1) A reaction solution having a composition shown in Table 1 was prepared on a clean bench, and left to stand for 15 minutes. The solution was dispensed to each well of a 96-well plate (BD). Subsequently, HEK293 cells (100 μL, 3×10^5 cells/cm^2) were seeded in each well and cultured for 24 hours in an incubator at 37° C. and under 5% CO2 conditions.
(§2) The olfactory receptor expressed in HEK293 cells activates adenylate cyclase with the aid of Gαs present in cells, to thereby increase intracellular cAMP level. In this study, odorant response was measured by a luciferase reporter gene assay which monitored the intracellular cAMP level as the luminescence value derived from a firefly luciferase gene (fluc2P-CRE-hygro). Also, a Renilla luciferase gene fused downstream of a CMV promoter (hRluc-CMV) was also transfected to HEK293 cells as an internal standard to correct errors in gene transfer efficiency and number of cells.
(§3) Cell culturing was performed for four hours in a CO2-incubator, whereby the luciferase gene sufficiently expressed in the cells. Luciferase activity was measured by means of a Dual-Glo™ luciferase assay system (promega) according to an instruction manual thereof. The luminescence value derived from firefly luciferase induced by odorant stimulation was divided by the luminescence value of cells which were not stimulated with odorants. The thus-obtained—called “fold increase”—was employed as an index for response intensity.
(§4) The response inhibition rate of a test substance was calculated as follows. Firstly, luminescence value derived from firefly luciferase induced by stimulation with skatole (X), and luminescence value in cells which expressed the same receptor but were not stimulated with skatole (Y) were determined. By subtracting Y from X, the receptor activity by stimulation with skatole alone (X−Y) was determined. Similarly, the luminescence value induced by stimulation with a mixture of skatole and a test substance (Z) was determined. Through subtracting Y (the luminescence value in cells which expressed the same receptor but were not stimulated with skatole) from Z, the receptor activity (Z−Y) by stimulation with a mixture of skatole and the test substance was obtained. From the thus-obtained receptor activity by stimulation with skatole alone (X−Y) and the receptor activity in the presence of a test material (Z−Y), the response inhibition rate of the test substance was calculated by the following equation: Inhibition rate (%)={1−(Z−Y)/(X−Y)}×100.
(§5) In each case, multiple independent experiments were performed in duplicate, and the average of each experiment was used.
For orientation: In a reporter assay the amount or activity of a reporter protein is the signal.

In the next assay the target is T2, OR5K1 (Homo sapiens, UniProt Q8NHB7).
T2 construct: expressed in transfected cells; host or cells: HEK293
T2 sequence (Q8NHB7 1-308): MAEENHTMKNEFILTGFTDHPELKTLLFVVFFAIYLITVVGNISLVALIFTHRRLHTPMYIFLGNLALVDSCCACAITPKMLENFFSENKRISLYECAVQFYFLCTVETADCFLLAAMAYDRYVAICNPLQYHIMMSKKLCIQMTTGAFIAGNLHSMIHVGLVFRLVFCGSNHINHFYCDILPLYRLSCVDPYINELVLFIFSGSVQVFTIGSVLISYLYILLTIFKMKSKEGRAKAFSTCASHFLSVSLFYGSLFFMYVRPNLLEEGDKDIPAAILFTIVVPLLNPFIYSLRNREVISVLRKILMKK
Put plainly: Luciferase reporter assay: suppression of the skatole response of OR5K1 expressed in HEK293 cells. The settings on record: test substance 100 μM mixed with 300 μM skatole, HEK293 cells expressing OR5K1; for inhibition at 100 µM: 4 h, read-out: Inhibition rate 5K1. As for the experimental part: as §1, §2, §3, §4, §5

The next assay deals with T3, OR5P3 (Homo sapiens, UniProt Q8WZ94).
T3 construct: expressed in transfected cells; host or cells: HEK293
T3 sequence (Q8WZ94 1-311): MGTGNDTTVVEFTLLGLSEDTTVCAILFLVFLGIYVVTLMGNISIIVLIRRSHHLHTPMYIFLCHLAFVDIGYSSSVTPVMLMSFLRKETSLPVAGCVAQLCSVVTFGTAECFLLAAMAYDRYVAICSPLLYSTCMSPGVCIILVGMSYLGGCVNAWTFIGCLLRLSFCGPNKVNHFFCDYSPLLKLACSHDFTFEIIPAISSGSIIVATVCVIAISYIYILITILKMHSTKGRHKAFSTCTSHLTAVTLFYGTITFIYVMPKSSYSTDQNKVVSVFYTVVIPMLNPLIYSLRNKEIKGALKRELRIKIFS
The experiment in a line: Luciferase reporter assay: suppression of the skatole response of OR5P3 expressed in HEK293 cells. To be noted: test substance 100 μM mixed with 300 μM skatole, HEK293 cells expressing OR5P3. On the procedure:
as §1, §2, §3, §4, §5

A further assay concerns the target T4, OR2W1 (Homo sapiens, UniProt Q9Y3N9).
T4 construct: expressed in transfected cells; host or cells: HEK293
T4 sequence (Q9Y3N9 1-320): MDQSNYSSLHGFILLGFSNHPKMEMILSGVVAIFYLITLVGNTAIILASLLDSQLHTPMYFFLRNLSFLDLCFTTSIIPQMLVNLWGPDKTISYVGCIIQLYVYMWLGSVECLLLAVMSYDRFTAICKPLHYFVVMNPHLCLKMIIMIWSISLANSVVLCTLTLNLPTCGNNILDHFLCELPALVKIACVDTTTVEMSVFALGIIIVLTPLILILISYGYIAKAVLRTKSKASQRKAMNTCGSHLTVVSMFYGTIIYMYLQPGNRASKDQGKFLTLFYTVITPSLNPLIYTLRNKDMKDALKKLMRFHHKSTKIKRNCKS
The experiment in a line: Luciferase reporter assay: suppression of the skatole response of OR2W1 expressed in HEK293 cells. To be noted: test substance 100 μM mixed with 300 μM skatole, HEK293 cells expressing OR2W1; for inhibition at 100 µM: 4 h, read-out: Inhibition rate 2W1. As for the experimental part: as §1, §2, §3, §4, §5

Consider “2,6-Dimethyl-2-octanol/3,7-Dimethyl-3-octanol [tetrahydromugol]”, for which the “Inhibition rate 8H1” value on OR8H1 was “C (C >20%)”. Further, the “Inhibition rate 5K1” value on OR5K1 was “C (C >20%)”. Further, the “Inhibition rate 5P3” value on OR5P3 was “C (C >20%)”.
“4(3)-(4-Methyl-3-pentenyl)-3-cyclohexenylmethyl acetate [myraldyl acetate]”: the “Inhibition rate 8H1” value at OR8H1 is “C (C >20%)”. On OR5P3, the “Inhibition rate 5P3” value was “C (C >20%)”. The “Inhibition rate 2W1” value at OR2W1 is reported as “C (C >20%)”.
Regarding `C=CCOC(=O)CCC1CCCCC1` [Allyl cyclohexylpropionate], the “Inhibition rate 8H1” value at OR8H1 is recorded as “C (C >20%)”. The “Inhibition rate 5K1” value at OR5K1 is “C (C >20%)”. Further, the “Inhibition rate 2W1” value at OR2W1 is “C (C >20%)”.
For orientation: inhibition means the change of the read-out against control, counted positive when it falls. In the case of `CCC(O)COC1CCCCC1C(C)(C)C` (centres unmarked) [Ambercore, 1-(2-tert-Butylcyclohexyloxy)-2-butanol], the inhibition at 100 µM is more than 80% at OR8H1, 50 to 80% at OR5K1 and more than 80% on OR2W1. In addition, the “Inhibition rate 5P3” value on OR5P3 was “B (B >50%)”.
Consider `CC1(C)CCCC2(C)C1CCC1(C)OCCC12` (centres unmarked) [Ambroxane, Dodecahydro-3a,6,6,9a-tetramethyl-naphtho[2.1-b]furan], for which the “Inhibition rate 8H1” value on OR8H1 is reported as “A (A >80%)”. Moreover, on OR5K1, the “Inhibition rate 5K1” value was “C (C >20%)”. The “Inhibition rate 5P3” value at OR5P3 was “B (B >50%)”. Further, the “Inhibition rate 2W1” value at OR2W1 was “A (A >80%)”.
Take `CC1(C)CCCC2=C1CC(C=O)CC2` (centres unmarked) [Cyclemone A, 1,2,3,4,5,6,7,8-octahydro-8,8-dimethyl-2-naphthaldehyde]: the inhibition at 100 µM lay in the range of 20 to 50% on OR8H1, 20 to 50% on OR5K1 and 50 to 80% at OR2W1. Besides, on OR5P3, the “Inhibition rate 5P3” value is “C (C >20%)”.
For `C=CCCC(=O)C1=CCCC(C)(C)C1` [Dinascone, 1-(5,5-Dimethyl-cyclohexen-1-yl)-4-penten-1-one], the inhibition at 100 µM at OR8H1 was more than 80%; at OR5K1 it was 50 to 80%; on OR2W1 it was more than 80%. Further, the “Inhibition rate 5P3” value on OR5P3 was “B (B >50%)”.
Take `CC1=CCC(C=CC(C)C(C)O)C1(C)C` (centres unmarked) [Ebanol, 3-Methyl-5-(2,2,3-trimethyl-3-cyclopenten-1-yl)-4-penten-2-ol]: the inhibition at 100 µM at OR8H1 is 50 to 80%; at OR5K1, more than 80%; at OR2W1, 50 to 80%. For the same compound, at OR5P3, the “Inhibition rate 5P3” value is “A (A >80%)”.
`CCOC(=O)C1OC1(C)c1ccccc1` (centres unmarked) [Ethyl-2,3-epoxy-3-methyl-3-phenyl propionate]: the “Inhibition rate 8H1” value at OR8H1 is “B (B >50%)”. The “Inhibition rate 5K1” value at OR5K1 is given as “C (C >20%)”. Further, the “Inhibition rate 5P3” value on OR5P3 is on record as “C (C >20%)”.
Take `CC(C)c1cccc(C(C)CC=O)c1` (stereo not drawn) [Florhydral, β-Methyl-3-(1-methylethyl)benzenepropanal]: the inhibition at 100 µM on OR8H1, at OR5K1 and at OR2W1 was 50 to 80% each time. Also, at OR5P3, the “Inhibition rate 5P3” value is given as “B (B >50%)”.
Take `C=CC(C)=CCC(C)(C)C(=NO)C(C)C` [Labienoxime, 2,4,4,7-Tetramethyl-6,8-nonadiene-3-one oxime]: the inhibition at 100 µM at OR8H1 is 20 to 50%; at OR5K1, less than 20%; at OR2W1, 50 to 80%.
On to `CC1=CC(C)C(C=O)CC1` (centres unmarked) [Triplal, Dimethyl-3-cyclohexene-1-carboxaldehyde], for which the “Inhibition rate 8H1” value at OR8H1 is reported as “C (C >20%)”. Besides, the “Inhibition rate 5P3” value at OR5P3 is “C (C >20%)”. In addition, the “Inhibition rate 2W1” value at OR2W1 was “C (C >20%)”.
`CC(C)(C)c1ccc(CCC=O)cc1` [bourgeonal, 3-(4-tert-butylphenyl)propionaldehyde]: the inhibition at 100 µM on OR8H1 is less than 20%; on OR5K1, 50 to 80%; on OR2W1, more than 80%.
With `CC/C=C\CCOC(=O)c1ccccc1O` [cis-3-hexynlyl salicylate, 3(Z)-Hexenyl 2-hydroxy benzoate], the “Inhibition rate 5K1” value at OR5K1 was “C (C >20%)”. Also, on OR5P3, the “Inhibition rate 5P3” value is reported as “B (B >50%)”. Besides, the “Inhibition rate 2W1” value at OR2W1 is listed as “B (B >50%)”.
With `CC(=O)OCCC(C)CCC=C(C)C` (centres unmarked) [citronellyl acetate, 3,7-Dimethyl-6-octen-1-yl acetate], the inhibition at 100 µM on OR8H1, on OR5K1 and at OR2W1 was 20 to 50% each time.
Consider `CC(=O)OC(C)(C)Cc1ccccc1` [dimethylbenzylcarbinyl acetate, α,α-Dimethyl phenylethyl acetate], for which the “Inhibition rate 8H1” value at OR8H1 is on record as “B (B >50%)”. For the same compound, the “Inhibition rate 5K1” value on OR5K1 is on record as “C (C >20%)”. Besides, the “Inhibition rate 5P3” value at OR5P3 is on record as “C (C >20%)”.
Regarding `CCCCCCOC(=O)c1ccccc1O` [hexyl salicylate, n-Hexyl-o-hydroxy benzoate], the “Inhibition rate 5P3” value at OR5P3 is on record as “C (C >20%)”. In addition, the “Inhibition rate 2W1” value at OR2W1 was “B (B >50%)”.
`CC(C)=CCCC1=CCC(C=O)CC1` (centres unmarked) [myrac aldehyde, 4-(4-Methyl-3-penten-1-yl)-3-cyclohexene-1-carboxaldehyde]: the inhibition at 100 µM at OR8H1 is 20 to 50%; at OR5K1, less than 20%; at OR2W1, more than 80%.
Take `C=C(C)C1CC=C(C=O)CC1` (centres unmarked) [perillaldehyde, 4-(1-Methylethenyl)-1-cyclohexene-1-carboxyaldehyde]: the inhibition at 100 µM is 50 to 80% on OR8H1, 20 to 50% on OR5K1 and less than 20% at OR2W1.
Regarding `CC(C)Cc1ccc(CC(C)C=O)cc1` (stereo not drawn) [suzaral, α-Methyl-4-(2-methylpropyl)-benzenepropanal], the inhibition at 100 µM on OR8H1 is 50 to 80%; on OR5K1 it was less than 20%; at OR2W1, 20 to 50%.
Regarding `CC(=O)C=CC1=C(C)CCCC1(C)C` [β-ionone, 4-(2,6,6-Trimethyi-1-cyclohexen-1-yl)-3-buten-2-one], on OR8H1, the “Inhibition rate 8H1” value is on record as “A (A >80%)”. Further, the “Inhibition rate 5K1” value at OR5K1 was “B (B >50%)”. Moreover, on OR2W1, the “Inhibition rate 2W1” value was “C (C >20%)”.
As to “Hexahydro-4,7-methanoinden-5(6)-yl acetate [tricyclodecenyl acetate]”, at OR8H1, the “Inhibition rate 8H1” value was “B (B >50%)”. Also, the “Inhibition rate 5K1” value at OR5K1 is “C (C >20%)”. The “Inhibition rate 5P3” value at OR5P3 is “C (C >20%)”.
